Measurements: ChEMBL document CHEMBL6134892, “Discovery and Evaluation of DA-302168S as an Efficacious Oral Small-Molecule Glucagon-Like Peptide-1 Receptor Agonist” (J Med Chem, 2025)

Tests used:
[1] = Metabolic stability in human liver microsomes assessed as hepatic clearance at 1 uM measured after 5 to 45 mins in presence of NADPH by LC-MS/MS analysis; assay type: ADME, Microsome; conditions: time 5-45 min
hERG (KCNH2) = hERG (KCNH2) (Homo sapiens, UniProt Q12809); assay: Inhibition of human ERG at 30 uM by whole-cell patch clamp technique relative to control; assay type: toxicity
Sequence of hERG (KCNH2) (Q12809 whole entry): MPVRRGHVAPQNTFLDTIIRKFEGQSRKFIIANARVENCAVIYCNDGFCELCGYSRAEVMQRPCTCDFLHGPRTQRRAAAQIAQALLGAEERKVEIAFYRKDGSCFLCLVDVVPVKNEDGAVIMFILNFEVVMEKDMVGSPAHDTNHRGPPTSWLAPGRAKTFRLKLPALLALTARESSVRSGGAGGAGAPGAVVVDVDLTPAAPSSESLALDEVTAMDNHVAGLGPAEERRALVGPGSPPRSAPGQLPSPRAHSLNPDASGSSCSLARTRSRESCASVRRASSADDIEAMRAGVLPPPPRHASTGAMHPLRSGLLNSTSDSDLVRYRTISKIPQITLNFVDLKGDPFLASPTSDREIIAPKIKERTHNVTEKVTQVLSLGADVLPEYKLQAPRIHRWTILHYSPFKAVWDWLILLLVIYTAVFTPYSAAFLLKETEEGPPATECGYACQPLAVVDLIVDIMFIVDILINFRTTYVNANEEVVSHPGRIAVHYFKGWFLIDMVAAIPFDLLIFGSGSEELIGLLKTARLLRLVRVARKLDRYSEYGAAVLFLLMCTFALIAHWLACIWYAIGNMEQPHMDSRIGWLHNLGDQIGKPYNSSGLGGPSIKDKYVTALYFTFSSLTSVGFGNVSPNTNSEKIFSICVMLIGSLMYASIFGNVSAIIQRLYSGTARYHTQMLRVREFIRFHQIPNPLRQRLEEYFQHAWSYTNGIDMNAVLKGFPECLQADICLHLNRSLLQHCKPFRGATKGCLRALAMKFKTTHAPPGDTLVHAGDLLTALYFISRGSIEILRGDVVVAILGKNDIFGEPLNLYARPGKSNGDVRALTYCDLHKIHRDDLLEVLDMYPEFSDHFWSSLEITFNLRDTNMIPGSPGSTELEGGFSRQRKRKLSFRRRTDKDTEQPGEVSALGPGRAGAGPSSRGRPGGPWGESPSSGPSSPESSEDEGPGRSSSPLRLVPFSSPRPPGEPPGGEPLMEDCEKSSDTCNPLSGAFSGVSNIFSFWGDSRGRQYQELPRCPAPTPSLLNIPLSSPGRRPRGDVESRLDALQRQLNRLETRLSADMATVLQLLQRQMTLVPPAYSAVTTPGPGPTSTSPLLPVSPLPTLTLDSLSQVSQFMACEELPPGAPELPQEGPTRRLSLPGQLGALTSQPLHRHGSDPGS

[2] = Metabolic stability in human liver microsomes assessed as intrinsic clearance at 1 uM measured after 5 to 45 mins in presence of NADPH by LC-MS/MS analysis; assay type: ADME, Microsome; conditions: time 5-45 min, read-out: CLH
[3] = target: Voltage-gated inwardly rectifying potassium channel KCNH2 (Homo sapiens, UniProt Q12809); assay: Inhibition of human ERG by whole-cell patch clamp technique; assay type: toxicity
Sequence of Voltage-gated inwardly rectifying potassium channel KCNH2 (Q12809 whole entry): as above

[4] = Metabolic stability in human liver microsomes assessed as half life at 1 uM measured after 5 to 45 mins in presence of NADPH by LC-MS/MS analysis; assay type: ADME, Microsome; conditions: time 5-45 min
[5] = target: T1, Glucagon-like peptide 1 receptor (Homo sapiens, UniProt P43220); assay: Agonist activity at human GLP-1R expressed in HEK293 cells coexpressing CRE LUC incubated for 5 hrs by luciferase based microplate reader analysis; assay type: functional, cell-based
T1 sequence (P43220 whole entry): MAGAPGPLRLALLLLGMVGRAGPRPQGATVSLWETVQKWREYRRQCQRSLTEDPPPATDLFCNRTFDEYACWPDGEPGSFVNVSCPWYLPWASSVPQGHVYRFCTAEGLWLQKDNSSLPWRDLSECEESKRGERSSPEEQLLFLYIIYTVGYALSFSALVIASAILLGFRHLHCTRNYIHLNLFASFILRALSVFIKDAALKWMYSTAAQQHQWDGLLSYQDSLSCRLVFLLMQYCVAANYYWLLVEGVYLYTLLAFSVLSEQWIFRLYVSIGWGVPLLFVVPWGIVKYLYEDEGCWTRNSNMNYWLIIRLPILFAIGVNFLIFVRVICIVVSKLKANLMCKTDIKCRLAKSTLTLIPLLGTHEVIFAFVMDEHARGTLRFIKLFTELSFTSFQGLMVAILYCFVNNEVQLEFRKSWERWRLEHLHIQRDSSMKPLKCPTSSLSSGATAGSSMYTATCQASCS

[6] = Tmax in Sprague-Dawley rat at 10 mg/kg, po measured up to 24 hrs by LC-MS/MS analysis; assay type: ADME, organism-based; conditions: in vivo
[7] = target: T1, Glucagon-like peptide 1 receptor; assay: Agonist activity at human GLP-1R expressed in HEK293 cells by cAMP accumulation assay; assay type: functional, cell-based
[8] = target: T2, Glucagon-like peptide 1 receptor (Mus musculus, UniProt O35659); assay: Agonist activity at mouse GLP-1R expressed in HEK293 cells by cAMP accumulation assay; assay type: functional, cell-based
T2 sequence (O35659 whole entry): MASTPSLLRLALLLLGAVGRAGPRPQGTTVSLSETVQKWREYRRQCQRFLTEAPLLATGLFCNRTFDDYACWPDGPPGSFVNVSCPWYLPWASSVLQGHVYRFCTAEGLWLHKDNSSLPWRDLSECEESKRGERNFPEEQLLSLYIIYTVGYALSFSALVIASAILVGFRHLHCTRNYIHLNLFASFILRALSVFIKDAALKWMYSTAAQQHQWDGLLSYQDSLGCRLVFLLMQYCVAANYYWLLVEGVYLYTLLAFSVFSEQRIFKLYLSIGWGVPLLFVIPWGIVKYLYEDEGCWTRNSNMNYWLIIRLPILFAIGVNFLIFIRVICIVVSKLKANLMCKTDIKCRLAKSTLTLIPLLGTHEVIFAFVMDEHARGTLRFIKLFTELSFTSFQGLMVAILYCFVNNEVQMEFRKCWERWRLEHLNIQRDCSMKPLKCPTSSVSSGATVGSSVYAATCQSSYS

[9] = AUC last in male Sprague-Dawley rat at 1 mg/kg, iv measured up to 24 hrs by LC-MS/MS analysis; assay type: ADME, organism-based; conditions: in vivo
[10] = target: T1, Glucagon-like peptide 1 receptor; assay: Agonist activity at human GLP-1R expressed in HEK293 cells assessed as beta-arrestin recruitment; assay type: functional, cell-based
[11] = target: T3, Glucagon-like peptide 1 receptor (Rattus norvegicus, UniProt P32301); assay: Agonist activity at rat GLP-1R expressed in HEK293 cells by cAMP accumulation assay; assay type: functional, cell-based
T3 sequence (P32301 whole entry): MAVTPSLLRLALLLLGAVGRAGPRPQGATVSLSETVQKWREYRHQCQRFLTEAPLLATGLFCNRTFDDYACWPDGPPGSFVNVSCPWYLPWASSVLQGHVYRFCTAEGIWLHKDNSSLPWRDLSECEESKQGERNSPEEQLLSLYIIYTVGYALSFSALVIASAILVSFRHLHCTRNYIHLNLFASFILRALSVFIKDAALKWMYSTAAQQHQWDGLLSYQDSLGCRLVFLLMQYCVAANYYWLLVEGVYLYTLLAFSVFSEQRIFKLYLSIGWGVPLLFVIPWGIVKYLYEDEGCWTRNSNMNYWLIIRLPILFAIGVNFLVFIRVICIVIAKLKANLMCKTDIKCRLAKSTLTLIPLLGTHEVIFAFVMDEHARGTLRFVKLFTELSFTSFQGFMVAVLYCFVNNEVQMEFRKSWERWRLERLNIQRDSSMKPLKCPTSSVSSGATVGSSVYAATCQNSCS

5-HT1B receptor = 5-HT1B receptor (Homo sapiens, UniProt P28222); assay: Inhibition of 5-HT1B (unknown origin) at 10 uM relative to control; assay type: toxicity
Sequence of 5-HT1B receptor (P28222 whole entry): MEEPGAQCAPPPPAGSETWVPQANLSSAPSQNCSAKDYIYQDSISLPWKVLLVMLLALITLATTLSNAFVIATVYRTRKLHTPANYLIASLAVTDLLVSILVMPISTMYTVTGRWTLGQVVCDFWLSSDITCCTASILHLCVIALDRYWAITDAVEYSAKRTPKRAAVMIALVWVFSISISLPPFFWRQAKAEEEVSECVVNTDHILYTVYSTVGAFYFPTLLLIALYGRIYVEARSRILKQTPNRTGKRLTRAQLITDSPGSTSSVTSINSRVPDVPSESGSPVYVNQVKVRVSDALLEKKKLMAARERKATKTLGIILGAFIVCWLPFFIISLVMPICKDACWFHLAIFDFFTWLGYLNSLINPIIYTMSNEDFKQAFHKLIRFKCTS

[12] = Agonist activity at cynomolgus monkey GLP-1R expressed in HEK293 cells by cAMP accumulation assay; conditions: Macaca fascicularis
[13] = AUC last in Cynomolgus monkey at 5 mg/kg, po measured up to 48 hrs by LC-MS/MS analysis; assay type: ADME, organism-based, Macaca fascicularis; conditions: in vivo
[14] = Tmax in Cynomolgus monkey at 5 mg/kg, po measured up to 48 hrs by LC-MS/MS analysis; assay type: ADME, organism-based, Macaca fascicularis; conditions: in vivo
[15] = Half life in Cynomolgus monkey at 5 mg/kg, po measured up to 48 hrs by LC-MS/MS analysis; assay type: ADME, organism-based, Macaca fascicularis; conditions: in vivo
Cytochrome P450 2C19 = Cytochrome P450 2C19 (Homo sapiens, UniProt P33261); assay: Inhibition of CYP2C19 in human liver microsomes incubated for 45 mins in presence of NADPH by LC-MS/MS analysis; assay type: ADME, Microsome
Sequence of Cytochrome P450 2C19 (P33261 whole entry): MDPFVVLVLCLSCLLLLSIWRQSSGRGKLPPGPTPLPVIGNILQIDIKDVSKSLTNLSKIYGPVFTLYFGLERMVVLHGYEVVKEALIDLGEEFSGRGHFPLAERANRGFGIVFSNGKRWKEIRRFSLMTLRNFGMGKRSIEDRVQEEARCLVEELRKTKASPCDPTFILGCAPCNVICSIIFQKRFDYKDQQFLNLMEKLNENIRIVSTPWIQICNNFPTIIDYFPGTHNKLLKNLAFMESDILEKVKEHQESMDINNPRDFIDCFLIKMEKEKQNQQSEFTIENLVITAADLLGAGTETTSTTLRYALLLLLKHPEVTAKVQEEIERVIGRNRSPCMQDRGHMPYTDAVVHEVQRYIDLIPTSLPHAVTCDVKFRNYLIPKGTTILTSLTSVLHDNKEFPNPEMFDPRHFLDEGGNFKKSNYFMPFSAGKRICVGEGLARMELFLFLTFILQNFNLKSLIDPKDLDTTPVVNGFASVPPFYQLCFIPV

Cytochrome P450 2C9 = Cytochrome P450 2C9 (Homo sapiens, UniProt P11712); assay: Inhibition of CYP2C9 in human liver microsomes incubated for 10 mins in presence of NADPH by LC-MS/MS analysis; assay type: ADME, Microsome
Sequence of Cytochrome P450 2C9 (P11712 whole entry): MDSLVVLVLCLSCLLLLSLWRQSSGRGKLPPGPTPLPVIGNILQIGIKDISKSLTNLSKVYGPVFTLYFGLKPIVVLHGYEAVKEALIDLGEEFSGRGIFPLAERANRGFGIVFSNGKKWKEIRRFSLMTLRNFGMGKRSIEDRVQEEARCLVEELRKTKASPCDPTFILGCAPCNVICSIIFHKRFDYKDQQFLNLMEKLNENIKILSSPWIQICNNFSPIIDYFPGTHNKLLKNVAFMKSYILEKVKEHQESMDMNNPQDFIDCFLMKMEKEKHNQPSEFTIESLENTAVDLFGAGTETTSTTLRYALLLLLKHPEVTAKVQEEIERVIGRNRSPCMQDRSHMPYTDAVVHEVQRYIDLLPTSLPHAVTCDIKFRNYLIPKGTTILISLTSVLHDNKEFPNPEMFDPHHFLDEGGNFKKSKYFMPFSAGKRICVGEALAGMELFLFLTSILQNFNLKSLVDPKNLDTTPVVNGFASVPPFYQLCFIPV

[16] = AUC last in Sprague-Dawley rat at 10 mg/kg, po measured up to 24 hrs by LC-MS/MS analysis; assay type: ADME, organism-based; conditions: in vivo
Cytochrome P450 2B6 = target: T4, Cytochrome P450 2B6 (Homo sapiens, UniProt P20813); assay: Inhibition of CYP2B6 in human liver microsomes incubated for 10 mins in presence of NADPH by LC-MS/MS analysis; assay type: ADME, Microsome
T4 sequence (P20813 whole entry): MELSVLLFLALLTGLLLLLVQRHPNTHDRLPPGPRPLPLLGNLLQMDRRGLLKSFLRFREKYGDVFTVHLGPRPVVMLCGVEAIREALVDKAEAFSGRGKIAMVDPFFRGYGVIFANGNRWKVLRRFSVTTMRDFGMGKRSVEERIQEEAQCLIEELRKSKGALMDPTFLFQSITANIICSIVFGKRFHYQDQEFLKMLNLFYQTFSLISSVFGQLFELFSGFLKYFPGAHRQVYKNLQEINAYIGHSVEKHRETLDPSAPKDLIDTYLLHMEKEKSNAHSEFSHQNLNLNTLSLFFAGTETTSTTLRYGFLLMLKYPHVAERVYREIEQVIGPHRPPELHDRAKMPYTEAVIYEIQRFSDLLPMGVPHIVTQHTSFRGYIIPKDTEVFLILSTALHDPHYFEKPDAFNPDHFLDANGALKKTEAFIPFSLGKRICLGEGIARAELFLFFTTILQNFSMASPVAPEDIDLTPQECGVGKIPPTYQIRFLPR

[17] = Oral bioavailability in Cynomolgus monkey at 5 mg/kg measured up to 48 hrs by LC-MS/MS analysis; assay type: ADME, organism-based, Macaca fascicularis; conditions: in vivo
Cytochrome P450 2C8 = target: T5, Cytochrome P450 2C8 (Homo sapiens, UniProt P10632); assay: Inhibition of CYP2C8 in human liver microsomes incubated for 20 mins in presence of NADPH by LC-MS/MS analysis; assay type: ADME, Microsome
T5 sequence (P10632 whole entry): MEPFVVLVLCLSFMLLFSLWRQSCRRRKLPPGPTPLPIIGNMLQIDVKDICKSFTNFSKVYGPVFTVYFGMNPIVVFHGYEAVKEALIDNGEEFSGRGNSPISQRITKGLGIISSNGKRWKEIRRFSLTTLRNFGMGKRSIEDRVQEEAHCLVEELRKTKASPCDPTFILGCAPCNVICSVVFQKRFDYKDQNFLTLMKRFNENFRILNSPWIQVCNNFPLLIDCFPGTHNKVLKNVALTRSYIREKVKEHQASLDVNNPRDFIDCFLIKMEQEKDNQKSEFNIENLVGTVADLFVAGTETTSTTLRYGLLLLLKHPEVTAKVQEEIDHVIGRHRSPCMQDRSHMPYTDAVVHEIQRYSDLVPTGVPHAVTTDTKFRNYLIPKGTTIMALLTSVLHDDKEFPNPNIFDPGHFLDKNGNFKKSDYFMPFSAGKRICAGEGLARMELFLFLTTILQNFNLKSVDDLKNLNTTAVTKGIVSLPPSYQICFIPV

[18] = target: CB2 (cannabinoid receptor 2) (Homo sapiens, UniProt P34972); assay: Inhibition of CB2 (unknown origin) at 10 uM relative to control; assay type: toxicity
Sequence of CB2 (cannabinoid receptor 2) (P34972 whole entry): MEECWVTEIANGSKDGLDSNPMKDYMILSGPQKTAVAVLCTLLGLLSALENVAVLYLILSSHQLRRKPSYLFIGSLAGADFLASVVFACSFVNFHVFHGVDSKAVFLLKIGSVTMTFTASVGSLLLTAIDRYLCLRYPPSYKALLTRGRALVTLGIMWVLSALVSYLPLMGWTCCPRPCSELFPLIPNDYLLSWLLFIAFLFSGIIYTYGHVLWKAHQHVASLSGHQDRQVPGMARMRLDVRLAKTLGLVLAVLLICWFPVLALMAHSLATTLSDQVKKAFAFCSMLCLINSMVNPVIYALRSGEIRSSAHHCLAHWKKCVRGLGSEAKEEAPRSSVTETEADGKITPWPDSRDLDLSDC

[19] = Agonist activity at dog GLP-1R expressed in HEK293 cells by cAMP accumulation assay; conditions: Canis lupus familiaris
[20] = Oral bioavailability in Sprague-Dawley rat at 10 mg/kg measured up to 24 hrs by LC-MS/MS analysis; assay type: ADME, organism-based; conditions: in vivo
[21] = Cmax in Sprague-Dawley rat at 10 mg/kg, po measured up to 24 hrs by LC-MS/MS analysis; assay type: ADME, organism-based; conditions: in vivo
[22] = target: LCK (tyrosine-protein kinase Lck) (Homo sapiens, UniProt P06239); assay: Inhibition of LCK (unknown origin) at 10 uM relative to control; assay type: toxicity
Sequence of LCK (tyrosine-protein kinase Lck) (P06239 whole entry): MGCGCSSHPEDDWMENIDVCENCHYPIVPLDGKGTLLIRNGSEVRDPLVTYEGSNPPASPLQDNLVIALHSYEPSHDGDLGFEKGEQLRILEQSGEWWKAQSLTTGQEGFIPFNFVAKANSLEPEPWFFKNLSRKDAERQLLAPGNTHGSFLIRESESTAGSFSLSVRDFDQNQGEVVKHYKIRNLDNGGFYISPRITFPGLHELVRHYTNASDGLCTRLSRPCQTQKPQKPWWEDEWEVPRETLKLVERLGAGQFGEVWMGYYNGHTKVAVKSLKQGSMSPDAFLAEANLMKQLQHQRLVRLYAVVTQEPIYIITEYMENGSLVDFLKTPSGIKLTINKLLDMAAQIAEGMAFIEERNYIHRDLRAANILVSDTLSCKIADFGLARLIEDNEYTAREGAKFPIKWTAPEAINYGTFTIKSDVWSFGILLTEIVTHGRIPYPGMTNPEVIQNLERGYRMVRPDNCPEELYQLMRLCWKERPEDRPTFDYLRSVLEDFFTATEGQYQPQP

Cytochrome P450 3A4 = Cytochrome P450 3A4 (Homo sapiens, UniProt P08684); assay: Inhibition of CYP3A4 in human liver microsomes using testosterone as substrate incubated for 5 mins in presence of NADPH by LC-MS/MS analysis; assay type: ADME, Microsome
Cytochrome P450 1A2 = target: T6, Cytochrome P450 1A2 (Homo sapiens, UniProt P05177); assay: Inhibition of CYP1A2 in human liver microsomes incubated for 10 mins in presence of NADPH by LC-MS/MS analysis; assay type: ADME, Microsome
T6 sequence (P05177 whole entry): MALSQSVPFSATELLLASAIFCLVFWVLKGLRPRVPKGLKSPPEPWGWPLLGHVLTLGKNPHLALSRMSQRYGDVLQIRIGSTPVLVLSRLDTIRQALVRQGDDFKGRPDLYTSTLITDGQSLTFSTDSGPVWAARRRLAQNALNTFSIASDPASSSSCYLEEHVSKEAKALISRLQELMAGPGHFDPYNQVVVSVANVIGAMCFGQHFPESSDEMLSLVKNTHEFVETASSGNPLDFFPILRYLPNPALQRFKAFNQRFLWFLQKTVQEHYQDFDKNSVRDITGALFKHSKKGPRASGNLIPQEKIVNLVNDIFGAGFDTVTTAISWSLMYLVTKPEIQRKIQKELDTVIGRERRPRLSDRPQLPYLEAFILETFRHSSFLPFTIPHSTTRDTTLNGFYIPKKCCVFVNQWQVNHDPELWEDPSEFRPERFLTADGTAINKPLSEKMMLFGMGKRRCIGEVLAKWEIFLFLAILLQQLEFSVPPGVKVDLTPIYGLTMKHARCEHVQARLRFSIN

[23] = Cmax in Cynomolgus monkey at 5 mg/kg, po measured up to 48 hrs by LC-MS/MS analysis; assay type: ADME, organism-based, Macaca fascicularis; conditions: in vivo
[24] = Half life in Cynomolgus monkey at 0.5 mg/kg, iv measured up to 48 hrs by LC-MS/MS analysis; assay type: ADME, organism-based, Macaca fascicularis; conditions: in vivo
Cytochrome P450 2D6 = Cytochrome P450 2D6 (Homo sapiens, UniProt P10635); assay: Inhibition of CYP2D6 in human liver microsomes incubated for 20 mins in presence of NADPH by LC-MS/MS analysis; assay type: ADME, Microsome

O=C(O)c1ccc2nc(Cc3ccc(-c4cccc(OCc5ccc(Cl)c6cc(Cl)oc56)n4)cc3F)n(C[C@@H]3CCO3)c2c1
CLhep predicted at 1 µM [1]: 8.7 mL/min/kg | inhibition at 30 µM (hERG (KCNH2)): < 50% | CLint scaled at 1 µM [2]: 15 mL/min/kg | IC50 [3]: > 30 µM | half-life at 1 µM [4]: 1.93 h

Cc1cc2c(Cl)ccc(COc3cccc(-c4ccc(Cc5nc6ccc(C(=O)O)cc6n5C[C@@H]5CCO5)c(F)c4)n3)c2o1
EC50 [5]: 0.00755 µM

O=C(O)c1ccc2nc(Cc3ccc(-c4cccc(OCc5ccc(Cl)c6ccoc56)n4)cc3F)n(C[C@@H]3CCO3)c2c1
inhibition at 30 µM (hERG (KCNH2)): < 50% | IC50 [3]: > 30 µM

O=C(O)c1ccc2nc(Cc3ccc(-c4cncc(OCc5ccc(Cl)c6ccoc56)n4)cc3F)n(C[C@@H]3CCO3)c2c1
EC50 [5]: 0.0709 µM

O=C(O)c1ccc2nc(Cc3ccc(-c4ccc(F)c(OCc5ccc(Cl)c6ccoc56)n4)cc3F)n(C[C@@H]3CCO3)c2c1
Tmax [6]: 3.5 h | EC50 [7]: 0.029 nM | EC50 [8]: > 30 µM | AUC(0-t) at 24 h [9]: 1480 ng·h/mL | EC50 [10]: 0.118 µM | EC50 [11]: > 30 µM | inhibition at 10 µM (5-HT1B receptor): 62.4% | CLhep predicted at 1 µM [1]: 8.09 mL/min/kg | EC50 [12]: 0.012 nM | AUC(0-t) at 48 h [13]: 2440 ng·h/mL | Tmax [14]: 2.5 h | half-life [15]: 10.4 h | IC50 (Cytochrome P450 2C19): > 30 µM | IC50 (Cytochrome P450 2C9): > 30 µM | AUC(0-t) at 24 h [16]: 2960 ng·h/mL | inhibition at 30 µM (hERG (KCNH2)): < 50% | IC50 (Cytochrome P450 2B6): > 30 µM | bioavailability [17]: 13.9% | CLint scaled at 1 µM [2]: 13.3 mL/min/kg | IC50 (Cytochrome P450 2C8): 28.3 µM | inhibition at 10 µM [18]: 74.4% | IC50 [3]: > 30 µM | EC50 [19]: > 30 µM | bioavailability [20]: 20.1% | Cmax [21]: 347 ng/mL | inhibition at 10 µM [22]: 87.5% | IC50 (Cytochrome P450 3A4): > 30 µM | IC50 (Cytochrome P450 1A2): > 30 µM | Cmax [23]: 327 ng/mL | half-life at 1 µM [4]: 2.18 h | EC50 [5]: 0.00132 µM | half-life [24]: 12.7 h | IC50 (Cytochrome P450 2D6): > 30 µM
